This note sets out measurements from US20050054770A1, “Helicomimetics and stabilized lxxll peptidomimetics” (priority 2001, published 2005).

One assay concerns the target ER beta (Homo sapiens, UniProt Q92731). The assay can be described thus: competition binding assay against a model linear peptide sequence (estrogen receptor-coactivator interaction), ER beta. How it is done: (§1) The synthetic helicormimetic peptides designed as antagonists of the estrogen receptor-coactivator interactions were tested in a competition binding assay (Lilly Research Labs) against a model linear peptide sequence. Activities are reported in the Table below in Ki values, with two of the best analogs labeled as PERM-1 and PERM-2, or Peptidomimetic Estrogen Receptor Modulators.

Another assay addresses T1, ER alpha (Homo sapiens, UniProt P03372).
T1 sequence (P03372 1-595): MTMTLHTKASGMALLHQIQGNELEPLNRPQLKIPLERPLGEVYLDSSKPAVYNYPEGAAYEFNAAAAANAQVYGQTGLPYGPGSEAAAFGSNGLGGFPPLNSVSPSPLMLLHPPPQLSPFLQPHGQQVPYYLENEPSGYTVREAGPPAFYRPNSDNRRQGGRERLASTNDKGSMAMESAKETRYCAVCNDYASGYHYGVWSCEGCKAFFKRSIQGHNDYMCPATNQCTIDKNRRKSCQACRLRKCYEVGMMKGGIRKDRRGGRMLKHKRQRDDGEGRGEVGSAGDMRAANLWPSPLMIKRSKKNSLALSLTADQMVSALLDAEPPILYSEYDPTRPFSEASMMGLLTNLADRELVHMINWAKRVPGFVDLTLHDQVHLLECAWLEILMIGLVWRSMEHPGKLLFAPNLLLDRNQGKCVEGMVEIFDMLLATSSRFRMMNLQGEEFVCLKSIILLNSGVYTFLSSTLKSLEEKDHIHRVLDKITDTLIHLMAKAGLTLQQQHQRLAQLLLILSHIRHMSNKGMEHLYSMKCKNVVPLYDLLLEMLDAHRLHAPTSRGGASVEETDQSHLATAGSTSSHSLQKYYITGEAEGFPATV
The assay can be described thus: competition binding assay against a model linear peptide sequence (estrogen receptor-coactivator interaction), ER alpha. How it is done:
as §1

Setting [1] is: competition binding assay (Lilly Research Labs), read-out: Ki ER β.
Where [2] appears, read: competition binding assay (Lilly Research Labs), read-out: Ki ER α.

Where two headings read alike, the source gives them in different places. Positions of bridges follow the written chain, without caps; N, C: chain ends. Non-standard residues stand in square brackets, D forms with d. Residues, ends and D or L forms follow the SMILES beside them. dPen = CC(C)(S)[C@@H](N)C(=O)O; Pen = CC(C)(S)[C@H](N)C(=O)O; hCys = N[C@@H](CCS)C(=O)O; Aib = CC(C)(N)C(=O)O

Sequence of ER beta (Q92731 whole entry): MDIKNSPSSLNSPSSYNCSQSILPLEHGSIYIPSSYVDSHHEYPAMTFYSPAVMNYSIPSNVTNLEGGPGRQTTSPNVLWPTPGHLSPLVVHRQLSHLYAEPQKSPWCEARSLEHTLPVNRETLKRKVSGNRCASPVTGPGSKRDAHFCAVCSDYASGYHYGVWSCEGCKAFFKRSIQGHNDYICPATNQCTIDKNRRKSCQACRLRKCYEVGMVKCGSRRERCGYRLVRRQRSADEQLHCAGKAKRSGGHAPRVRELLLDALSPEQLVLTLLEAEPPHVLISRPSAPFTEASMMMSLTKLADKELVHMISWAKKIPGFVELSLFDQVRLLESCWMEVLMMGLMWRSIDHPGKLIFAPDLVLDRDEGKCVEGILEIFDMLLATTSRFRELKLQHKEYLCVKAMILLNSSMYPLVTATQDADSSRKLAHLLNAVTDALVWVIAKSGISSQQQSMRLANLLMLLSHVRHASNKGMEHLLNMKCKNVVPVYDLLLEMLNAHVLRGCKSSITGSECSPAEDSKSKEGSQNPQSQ

One may read the Ki as the dissociation constant of the complex between target and ligand, obtained from inhibition or displacement. Turning to `CC[C@H](C)[C@@H]1NC(=O)[C@@H](NC(=O)[C@@H](N)CCCCN)CSC[C@@H](C(=O)N[C@@H](CCCNC(=N)N)C(=O)N[C@@H](CC(C)C)C(=O)N[C@@H](CC(C)C)C(=O)N[C@@H](CCC(N)=O)C(N)=O)NC(=O)[C@H](CC(C)C)NC1=O` [AKG-I-39, H-Lys-cyclo (Ala-Ile-Leu-Ala)- Arg-Leu-Leu-Gln-NH2, Lanthionine], the results for the Ki at ER beta (setting [1]) and on ER alpha (setting [2]) were 15400 nM and 1180 nM, respectively.
As to `CC(C)C[C@H](NC(=O)[C@H](CC(C)C)NC(=O)[C@H](CCC(N)=O)NC(=O)[C@H](CCC(=O)O)NC(=O)[C@H](CC(C)C)NC(=O)CC1O[C@H](CO)[C@@H](O)[C@H](O)[C@@H]1O)C(=O)O` (stereo partly drawn) [AML-I-31, Mannosylacetvl-Leu-Glu-Gln-Leu-Leu-OH], the inhibition constant (Ki) on ER beta (setting [1]) stood at 339000 nM.
With `CC[C@H](C)[C@@H]1NC(=O)[C@H](CC(C)C)NC(=O)[C@@H](NC(=O)[C@@H](N)CCCCN)CSSC[C@H](C(=O)N[C@@H](CCCNC(=N)N)C(=O)N[C@@H](CC(C)C)C(=O)N[C@@H](CC(C)C)C(=O)N[C@@H](CCC(N)=O)C(N)=O)NC1=O` [AKG-I-59, H-Lys-cyclo(Cys-Leu-Ile-D-Cys)-Arg-Leu-Leu-Gln-NH2] (H-KCLI[dC]RLLQ-NH2; disulfide 2-5), the Ki on ER beta (setting [1]) was 17000 nM; on ER alpha (setting [2]), 2100 nM.
Consider `CC[C@H](C)[C@@H]1NC(=O)[C@H](NC(=O)[C@H](CC(C)C)NC(=O)[C@H](CC(C)C)NC(=O)[C@@H](N)CCCCN)CSSC[C@@H](C(=O)N[C@@H](CCCNC(=N)N)C(=O)N[C@@H](CC(C)C)C(=O)N[C@@H](CC(C)C)C(=O)N[C@@H](CCC(N)=O)C(N)=O)NC(=O)[C@H](CC(C)C)NC1=O` [AKG-I-46, H-Lys-Leu-Leu-cyclo(D-Cys-Ile-Leu-Cys)-Arg-Leu-Leu-Gln-NH2] (H-KLL[dC]ILCRLLQ-NH2; disulfide 4-7), for which the values for the Ki on ER beta (setting [1]) and at ER alpha (setting [2]) were 2000 nM and 398 nM, respectively.
With `CC[C@H](C)[C@@H]1NC(=O)[C@H](NC(=O)[C@H](CCCCN)NC(C)=O)CSSC[C@@H](C(=O)N[C@@H](CCCNC(=N)N)C(=O)N[C@@H](CC(C)C)C(=O)N[C@@H](CC(C)C)C(=O)N[C@@H](CCC(N)=O)C(N)=O)NC(=O)[C@H](CC(C)C)NC1=O` [AML-I-71/2, Ac-Lys-cyclo(D-Cys-Ile-Leu-Cys)-Arg-Leu-Leu-Gln-NH2] (Ac-K[dC]ILCRLLQ-NH2; disulfide 2-5), the Ki on ER beta (setting [1]) worked out at 7700 nM; at ER alpha (setting [2]), 120 nM.
For the molecule `CC[C@H](C)[C@@H]1NC(=O)[C@H](NC(=O)[C@@H](N)CCCNC(=N)N)CSSCC[C@@H](C(=O)N[C@@H](CCCNC(=N)N)C(=O)N[C@@H](CC(C)C)C(=O)N[C@@H](CC(C)C)C(=O)N[C@@H](CCC(N)=O)C(N)=O)NC(=O)[C@H](CC(C)C)NC1=O` [AKG-II-3, H-Arg-cyclo (D-Cys-Ile-Leu-HomoCys)-Arg-Leu-Leu-Gln-NH2] (H-R[dC]IL[hCys]RLLQ-NH2; disulfide 2-5), the inhibition constant Ki at ER beta (setting [1]) was found to be 214 nM; at ER alpha (setting [2]), 13 nM.
With `CC[C@H](C)[C@@H]1NC(=O)[C@H](NC(=O)[C@@H](N)CCCNC(=N)N)CSSC(C)(C)[C@@H](C(=O)N[C@@H](CCCNC(=N)N)C(=O)N[C@@H](CC(C)C)C(=O)N[C@@H](CC(C)C)C(=O)N[C@@H](CCC(N)=O)C(N)=O)NC(=O)[C@H](CC(C)C)NC1=O` [AKG-II-10, H-Arg-cyclo (D-Cys-Ile-Leu-Pen)-Arg-Leu-Leu-Gln-NH2] (H-R[dC]IL[Pen]RLLQ-NH2; disulfide 2-5), the values for the Ki at ER beta (setting [1]) and at ER alpha (setting [2]) were 1910 nM and 88 nM, respectively.
On to `CC[C@H](C)[C@@H]1NC(=O)[C@H](NC(=O)[C@@H](N)CCCNC(=N)N)C(C)(C)SSC[C@@H](C(=O)N[C@@H](CCCNC(=N)N)C(=O)N[C@@H](CC(C)C)C(=O)N[C@@H](CC(C)C)C(=O)N[C@@H](CCC(N)=O)C(N)=O)NC(=O)[C@H](CC(C)C)NC1=O` [AKG-II-9, H-Arg-cyclo (D-Pen-Ile-Leu-Cys)-Arg-Leu-Leu-Gln-NH2] (H-R[dPen]ILCRLLQ-NH2; disulfide 2-5), for which the values for the Ki on ER beta (setting [1]) and on ER alpha (setting [2]) were 933 nM and 168 nM, respectively.
Take `CC[C@H](C)[C@@H]1NC(=O)[C@H](NC(=O)[C@@H](N)CCCNC(=N)N)CSSC[C@@H](C(=O)N[C@@H](CCCNC(=N)N)C(=O)N[C@@H](CC(C)C)C(=O)N[C@@H](CC(C)C)C(=O)N[C@@H](CCC(N)=O)C(N)=O)NC(=O)[C@H](CC(C)C)NC1=O` [AKG-I-50, H-Arg-cyclo(D-Cys-Ile-Leu-Cys)-Arg-Leu-Leu-Gln-NH2] (H-R[dC]ILCRLLQ-NH2; disulfide 2-5): the inhibition constant Ki on ER beta (setting [1]) is 77 nM; at ER alpha (setting [2]), 11 nM.
As to `CC[C@H](C)[C@@H]1NC(=O)[C@@H](NC(=O)[C@@H](N)CCCNC(=N)N)CSSC[C@@H](C(=O)N[C@@H](CC(C)C)C(=O)N[C@@H](CC(C)C)C(=O)N[C@@H](CCC(N)=O)C(N)=O)NC(=O)[C@H](CCCNC(=N)N)NC(=O)[C@H](CC(C)C)NC1=O` [AKG-II-8, H-Arg-cyclo (Cys-Ile-Leu-Arg-Cys)-Leu-Leu-Gln-NH2] (H-RCILRCLLQ-NH2; disulfide 2-6), the Ki was 1160 nM at ER beta (setting [1]) and 174 nM on ER alpha (setting [2]).
Turning to `CC[C@H](C)[C@H](NC(=O)[C@H](CCCCN)NC(=O)[C@@H](N)CCCCN)C(=O)N[C@@H](CC(C)C)C(=O)N[C@@H](Cc1c[nH]cn1)C(=O)N[C@@H](CCCNC(=N)N)C(=O)N[C@@H](CC(C)C)C(=O)N[C@@H](CC(C)C)C(=O)N[C@@H](CCC(N)=O)C(N)=O` [AML-I-61/2, H-Lys-Lys-Ile-Leu-His-Arg-Leu-Leu-Gln-NH2] (H-KKILHRLLQ-NH2), the inhibition constant (Ki) on ER beta (setting [1]) is 2800 nM; at ER alpha (setting [2]), 170 nM.
In the case of `CC[C@H](C)[C@@H]1NC(=O)[C@H](NC(=O)[C@@H](N)CCCCN)CSSC[C@@H](C(=O)N[C@@H](CCCNC(=N)N)C(=O)N[C@@H](CC(C)C)C(=O)N[C@@H](CC(C)C)C(=O)N[C@@H](CCC(N)=O)C(N)=O)NC(=O)[C@H](CC(C)C)NC1=O` [AML-I-48/4, H-Lys-cyclo (D-Cys-Ile-Leu-Cys)-Arg-Leu-Leu-Gln-NH2] (H-K[dC]ILCRLLQ-NH2; disulfide 2-5), the inhibition constant Ki on ER beta (setting [1]) is 390 nM; at ER beta (read-out: Ki value against ER beta) it was about 390 nM; on ER alpha (read-out: Ki value against ER alpha), 25 nM. Further, on ER alpha (from Ki values against ER alpha and ER beta), the “selectivity ER alpha versus ER beta” value is reported as “exhibits selectivity against the ER alpha receptor”.
For the molecule `CC[C@H](C)[C@@H]1NC(=O)[C@H](NC(=O)[C@@H](N)CCCNC(=N)N)C(C)(C)SSC(C)(C)[C@@H](C(=O)N[C@@H](CCCNC(=N)N)C(=O)N[C@@H](CC(C)C)C(=O)N[C@@H](CC(C)C)C(=O)N[C@@H](CCC(N)=O)C(N)=O)NC(=O)[C@H](CC(C)C)NC1=O` [AKG-II-11, H-Arg-cyclo(D-Pen-Ile-Leu-Pen)-Arg-Leu-Leu-Gln-NH2] (H-R[dPen]IL[Pen]RLLQ-NH2; disulfide 2-5), the results for the inhibitory constant (Ki) on ER beta (setting [1]) and on ER alpha (setting [2]) were 3970 nM and 78 nM, respectively.
Taken in the same sequence, the figures for `CC[C@H](C)[C@@H]1NC(=O)[C@H](NC(=O)[C@@H](N)CCCCN)CSSC[C@H](C(=O)N[C@@H](CCCNC(=N)N)C(=O)N[C@@H](CC(C)C)C(=O)N[C@@H](CC(C)C)C(=O)N[C@@H](CCC(N)=O)C(N)=O)NC(=O)[C@H](CC(C)C)NC1=O` [AKG-I-61, H-Lys-cyclo(D-Cys-Ile-Leu-D-Cys)-Arg-Leu-Leu-Gln-NH2] (H-K[dC]IL[dC]RLLQ-NH2; disulfide 2-5) were 3900 nM and 928 nM.
Taken in the same sequence, the figures for `CC(C)C[C@H](NC(=O)[C@H](CC(C)C)NC(=O)[C@H](CCCNC(=N)N)NC(=O)[C@H]1CSSC[C@@H](NC(=O)[C@@H](N)CCCCN)C(=O)N[C@@H](CC(C)C)C(=O)N1)C(=O)N[C@@H](CCC(N)=O)C(N)=O` [AKG-I-64, H-Lys-cyclo(D-Cys-Leu-D-Cys)-Arg-Leu-Leu-Gln-NH2] (H-K[dC]L[dC]RLLQ-NH2; disulfide 2-4) were 5200 nM and 1800 nM.
Taken in the same sequence, the figures for `CC(C)C[C@H](NC(=O)[C@H](CC(C)C)NC(=O)[C@H](CCCNC(=N)N)NC(=O)[C@H]1CSSC[C@H](NC(=O)[C@@H](N)CCCCN)C(=O)N[C@@H](CC(C)C)C(=O)N1)C(=O)N[C@@H](CCC(N)=O)C(N)=O` [AKG-I-63, H-Lys-cyclo(Cys-Leu-D-Cys)-Arg-Leu-Leu-Gln-NH2] (H-KCL[dC]RLLQ-NH2; disulfide 2-4) were 7900 nM and 2200 nM.
In the case of `CC[C@H](C)[C@@H]1NC(=O)[C@H](NC(=O)[C@H](CCCCN)NC(=O)C(C)(C)N)CSSC[C@@H](C(=O)N[C@@H](CCCNC(=N)N)C(=O)N[C@@H](CC(C)C)C(=O)N[C@@H](CC(C)C)C(=O)N[C@@H](CCC(N)=O)C(N)=O)NC(=O)[C@H](CC(C)C)NC1=O` [AML-I-83/4, Aib-Lys-cyclo(D-Cys-Ile-Leu-Cys)-Arg-Leu-Leu-Gln-NH2] (H-[Aib]K[dC]ILCRLLQ-NH2; disulfide 3-6; N-terminus assumed), the Ki at ER beta (setting [1]) stood at 1400 nM; at ER alpha (setting [2]) it was 130 nM.
As for `CC[C@H](C)[C@@H]1NC(=O)[C@H](CC(C)C)NC(=O)[C@H](NC(=O)[C@@H](N)CCCNC(=N)N)CSSC[C@@H](C(=O)N[C@@H](CCCNC(=N)N)C(=O)N[C@@H](CC(C)C)C(=O)N[C@@H](CC(C)C)C(=O)N[C@@H](CCC(N)=O)C(N)=O)NC1=O` [AKG-II-1, H-Arg-cyclo (D-Cys-Leu-Ile-Cys)-Arg-Leu-Leu-Gln-NH2] (H-R[dC]LICRLLQ-NH2; disulfide 2-5), the values for the Ki on ER beta (setting [1]) and at ER alpha (setting [2]) were 216 nM and 13 nM, respectively.
